In patent publication US8642774B2, “Compounds” (Boehringer Ingelheim International GmbH, priority 2011, dated 2014):

Molecular target: T1, human recombinant mGluR5 (Homo sapiens, UniProt P41594)
T1 construct: expressed in transfected cells; host or cells: HEK 293 cell line, cultured with tetracycline, hygromycin and geneticin; tetracycline is withdrawn 3-7 days before the assay
Experiment: positive modulation of mGluR5, calcium based FLIPR assay
Type: cell-based
Conditions: EC50 of the modulation; HEK 293 cell line expressing human recombinant mGluR5; peak height of Ca fluorescence signal after glutamate at approx. 5% basal stimulation; read-out: EC50
Protocol: The positive modulation of mGluR5 is measured in a HEK 293 cell line expressing human recombinant mGluR5 and is detected with calcium based FLIPR assay. The cells are cultured with DMEM supplemented with 10% FCS, 2 μg/mL tetracycline, 100 μg/mL hygromycin and 500 μg/mL gneticin. The cell culture media is exchanged for tetracycline-free cell culture media 3-7 days before the assay. One day before the assay the cell culture medium is exchanged to DMEM without glutamine and phenol red and supplemented with 10% FCS, 100 μg/mL hygromycin and 500 μg/mL geneticin. On the assay day, the medium of the subconfluent cultures is removed and the cells are detached by addition of 2.5 ml EDTA (0.02%) per 175 cm2 culture flask for 1 minute. The cells are resuspend in Ringer solution (140 mM NaCl, 5 mM KCl, 2.5 mM CaCl2, 1.5 mM MgCl2, 5 mM Glucose, 10 mM Hepes; adjusted to pH 7.4 with NaOH), pooled and Ringer solution added to adjust the volume to 50 mL. The cell suspension is centrifuged for 5 min at 1500 U/min (425 g). The supernatant is removed and the cells washed a second time with 50 ml fresh Ringer solution and centrifuged again as before. The supernatant is again removed and the pellet resuspended in Ringer solution to 1,000,000 cells/ml (1×10^6 cells/mL). The cells are plated onto BD BioCoat Poly-D-Lysine 384 well plates (20.000 cells/well; 20 μl/well). The lid covered plates are then incubated until use at 37° C./10% CO2. For dye loading, 20 μl of Calcium-4 assay kit solution (prepared according to the manufacturer's description in Ringer solution) are added to the cells and the plates are incubated for 80 min 37° C. and then 10 min at room temperature. • Controls, Compound dilution and assay execution: • Each assay plate contained wells with “high” and “low” controls:
Low controls 1% DMSO/ringer solution+basal glutamate activation (defined as 100% CTL).
High controls 10 μM CDPPB+basal glutamate activation (defined as 200% CTL).
Test compounds are dissolved and diluted in DMSO to 100-fold the desired concentrations. In a second step, the compounds are diluted in Ringer solution such that the compounds are 4-fold more concentrated than the desired final assay concentration. The final DMSO concentration was 1%.
20 μl of each compound solution are then transferred to the assay plate and the Ca2+ kinetic is measured to determine any intrinsic compound activity. After 5 min incubation in the FLIPR device, the second stimulation with 20 μl of glutamate in Ringer solution (glutamate concentration adjusted to approximately 5% basal stimulation of the maximal possible glutamate effect) is added and the kinetic Ca2+ response of the wells was measured for the modulation effect.
The peak height of the Ca release related fluorescence signal (9-66) is used for the EC50. The EC50 of the modulation is calculated over a nonlinear regression with GraphPad Prism (Table 1).

T1 sequence (P41594 21-1212): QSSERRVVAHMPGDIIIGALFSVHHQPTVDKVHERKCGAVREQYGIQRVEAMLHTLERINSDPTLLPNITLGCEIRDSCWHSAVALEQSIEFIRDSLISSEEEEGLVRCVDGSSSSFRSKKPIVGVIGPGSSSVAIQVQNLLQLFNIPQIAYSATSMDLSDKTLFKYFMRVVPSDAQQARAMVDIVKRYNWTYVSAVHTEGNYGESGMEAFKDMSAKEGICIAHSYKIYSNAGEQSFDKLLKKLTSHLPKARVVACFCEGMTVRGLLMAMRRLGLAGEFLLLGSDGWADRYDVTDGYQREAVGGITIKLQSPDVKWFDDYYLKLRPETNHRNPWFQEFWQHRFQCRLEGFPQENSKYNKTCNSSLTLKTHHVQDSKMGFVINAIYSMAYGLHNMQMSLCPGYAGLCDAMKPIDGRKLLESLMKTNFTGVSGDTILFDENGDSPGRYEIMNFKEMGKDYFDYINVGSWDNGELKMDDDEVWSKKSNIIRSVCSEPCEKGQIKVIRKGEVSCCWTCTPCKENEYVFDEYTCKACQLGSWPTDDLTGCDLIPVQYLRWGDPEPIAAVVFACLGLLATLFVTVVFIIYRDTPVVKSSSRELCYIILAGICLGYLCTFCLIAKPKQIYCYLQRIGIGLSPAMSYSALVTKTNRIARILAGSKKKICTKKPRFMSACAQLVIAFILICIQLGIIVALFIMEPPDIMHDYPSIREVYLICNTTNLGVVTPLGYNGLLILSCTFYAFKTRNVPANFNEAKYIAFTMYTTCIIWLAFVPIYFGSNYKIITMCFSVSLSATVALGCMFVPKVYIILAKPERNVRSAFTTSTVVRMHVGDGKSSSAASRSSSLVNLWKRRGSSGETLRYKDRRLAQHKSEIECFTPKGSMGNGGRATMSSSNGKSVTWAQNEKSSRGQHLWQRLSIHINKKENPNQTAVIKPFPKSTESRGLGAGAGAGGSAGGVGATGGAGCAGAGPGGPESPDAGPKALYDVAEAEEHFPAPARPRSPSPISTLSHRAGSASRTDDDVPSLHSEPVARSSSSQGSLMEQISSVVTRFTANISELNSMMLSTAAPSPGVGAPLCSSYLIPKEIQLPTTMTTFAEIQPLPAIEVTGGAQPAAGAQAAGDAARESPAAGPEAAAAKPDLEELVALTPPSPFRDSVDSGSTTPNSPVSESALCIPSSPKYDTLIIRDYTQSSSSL

Row | SMILES | EC50
1 | O=C(Cn1nc(-c2ccc(F)cc2)nc1-c1ccc(F)cc1)N1CCc2ccccc2CC1 [Example 7.02.12.] | 1020 nM
2 | COc1ccc(-c2nc(-c3ccc(F)cc3)nn2CC(=O)N2CCc3nc(N)sc3CC2)cc1 [Example 7.03.057.] | 187 nM
3 | CC1CN(C(=O)Cn2nc(-c3ccc(F)cc3)nc2-c2ccc(F)cc2)CCN1c1ncccn1 (centres unmarked) [Example 7.03.118.] | 211 nM
4 | O=C(Cn1nc(-c2ccc(F)cc2)nc1-c1ccc(F)cc1)N1CCN(c2ccccn2)C(=O)C1 [Example 7.01.01., 4-(2-(3,5-bis-(4-Fluoro-phenyl)-(1,2,4)triazol-1-yl)-acetyl)-1-pyridin-2-yl-piperazin-2-one] | 212 nM
5 | O=C(Cn1nc(-c2ccc(F)cc2)nc1-c1ccc(F)cc1)N1CCc2nc(-c3ccccc3)ncc2C1 [Example 7.03.002.] | 708 nM
6 | O=C(Cn1nc(-c2ccc(F)cc2)nc1-c1ccc(F)cc1)N1CCN(c2ncnc3ccccc23)CC1 [07.03.141^] | 1120 nM
7 | COc1cc2c(cc1OC)CN(C(=O)Cn1nc(-c3ccc(F)cc3)nc1-c1ccc(F)cc1)CC2 [Example 7.03.006.] | 1680 nM
8 | Cc1nc2c(s1)CN(C(=O)Cn1nc(-c3ccc(F)c(C)c3)nc1CCC(C)C)C2 [Example 7.03.113.] | 340 nM
9 | Cc1noc(C2CCN(C(=O)Cn3nc(-c4ccc(F)cc4)nc3-c3ccc(F)cc3)CC2)n1 [Example 7.02.38.] | 1150 nM
10 | COc1ccc(-c2nc(-c3ccccc3)n(CC(=O)N3CCc4nc(N)sc4CC3)n2)cc1 [Example 7.03.051.] | 282 nM
11 | O=C(Cn1nc(-c2ccc(F)cc2)nc1-c1ccc(F)cc1)N1CCC(c2nnc(-c3ccc(F)cc3)o2)CC1 [Example 7.02.22.] | 746 nM
12 | Cn1c(=O)n(C2(C)CCN(C(=O)Cn3nc(-c4ccc(F)cc4)nc3-c3ccc(F)cc3)CC2)c2ccccc21 [Example 7.02.34.] | 1460 nM
13 | COc1ccc2c(c1)CN(C(=O)Cn1nc(-c3ccc(F)cc3)nc1-c1ccc(F)cc1)C2 [Example 7.02.47.] | 206 nM
14 | Cc1cc(-c2nc(C(C)C)n(CC(=O)N3CCc4nc(N)sc4CC3)n2)ccc1F [Example 7.03.073.] | 1170 nM
15 | COc1cccc2c1CN(C(=O)Cn1nc(-c3ccc(F)cc3)nc1-c1ccc(F)cc1)C2 [Example 7.02.46.] | 381 nM
16 | Cc1cc(-c2nc(C3CCCCC3C)n(CC(=O)N3CCc4nc(N)sc4CC3)n2)ccc1F (centres unmarked) [Example 7.03.094.] | 1090 nM
17 | O=C(Cn1nc(-c2ccc(F)cc2)nc1-c1ccc(F)cc1)N1CCC(c2ncccn2)CC1 [Example 7.03.012.] | 1470 nM
18 | Cc1nc2c(s1)CC(C)N(C(=O)Cn1nc(-c3ccc(F)cc3)nc1-c1ccc(F)cc1)CC2 (centres unmarked) [Example 7.03.121.] | 259 nM

These reach a lower EC50. Values come first.

Row | EC50 | SMILES
19 | 164 nM | Nc1nc2c(s1)CCN(C(=O)Cn1nc(-c3ccc(F)cc3)nc1-c1ccc(F)cc1)CC2 [Example 7.03.001., 1-(2-Amino-4,5,7,8-tetrahydro-thiazolo[4,5-d]azepin-6-yl)-2-(3,5-bis-(4-fluoro-phenyl)-(1,2,4)triazol-1-yl)-ethanone]
20 | 152 nM | CCCCCc1nc(-c2ccc(F)c(C)c2)nn1CC(=O)N1Cc2nc(C)oc2C1 [Example 7.03.125]
21 | 149 nM | Cc1cc(-c2nc(-c3ccccc3)n(CC(=O)N3CCc4cc(-c5ccccc5)nnc4CC3)n2)ccc1F [Example 7.02.82.]
22 | 141 nM | Nc1nc2c(s1)CCN(C(=O)Cn1nc(-c3ccc(F)cc3)nc1-c1ccc(F)cc1)CC2 [Example 7.03.013.]
23 | 107 nM | O=C(Cn1nc(-c2ccc(F)cc2)nc1-c1ccc(F)cc1)N1CC=C(c2ccccn2)CC1 [Example 7.03.024.]
24 | 97 nM | COc1ccc(-c2nc(-c3ccccc3)n(CC(=O)N3CCc4nc(C)sc4CC3)n2)cc1 [Example 7.03.054.]
25 | 57 nM | Cc1nc2c(o1)CCN(C(=O)Cn1nc(-c3ccc(F)cc3)nc1-c1ccc(F)cc1)CC2 [Example 7.03.122.]
26 | 54 nM | O=C(Cn1nc(-c2ccc(F)cc2)nc1-c1ccc(F)cc1)N1CC=C(c2ncco2)CC1 [Example 7.03.040.]
